Tests used:
[1] = calculated neutralization equilibrium constant Kn for deprotonation of sulfonamide with ammonia; assay type: physicochemical; conditions: for Kn: RfSO2NHX + NH3 -> RfSO2N(-)X + NH4+, pKa of ammonium 9.24 at 25 °C; for K(RfSO2NHX): acid dissociation constant of the sulfonamide, from pKa
Description: The equilibrium between a sulfonamide and its conjugate sulfamidate anion is determined by the both the pKa of the sulfonamide and the pKb (i.e., the pKa of the conjugate acid of the base).
NH3+RfSO2NHX→NH4^++RfSO2N^(−)X
The neutralization equilibrium constant Kn can be expressed as
Kn can also be expressed as: […]

[2] = determined experimentally

| Structure (SMILES) | Kn [1] | K(RfSO2NHX) [1] | pKa [2] |
| --- | --- | --- | --- |
| NS(=O)(=O)C(F)(F)C(F)(F)C(F)(F)C(F)(F)F [X = H, CF3CF2CF2CF2SO2NH2] | 1800 | 1.05 × 10^−6 | – |
| O=S(=O)(NCCO)C(F)(F)C(F)(F)C(F)(F)C(F)(F)F [X = CH2CH2OH, CF3CF2CF2CF2SO2NHCH2CH2OH] | 467 | 2.69 × 10^−7 | – |
| CCNS(=O)(=O)C(F)(F)C(F)(F)C(F)(F)C(F)(F)F [X = CH2CH3] | – | – | 8.15 |
| CNS(=O)(=O)C(F)(F)C(F)(F)C(F)(F)C(F)(F)F [X = CH3, CF3CF2CF2CF2SO2NHCH3] | 52 | 3.01 × 10^−8 | – |

From patent US20100155657A1, “AQUEOUS COMPOSITION CONTAINING FLUORINATED SULFONAMIDE AND SULFONAMIDATE COMPOUNDS” (3M Innovative Properties Company, priority 2008, published 2010)
